# Legend:
# [1] = system: A549 (Non-small cell lung carcinoma cell line); test: Cell proliferation, Assay Protocol I (CellTiter-Glo); assay type: cell-based; settings: Homo sapiens
# Procedure: (§1) Growth inhibitory activity against the human tumor cell lines was determined using Promega's CellTiter-Glo® assay. The cell lines of interest were placed in a 96-well microculture plate (Costar® white, flat bottom #3917) in a total volume of 90 μL/well. After 24 hours of incubation in a humidified incubator at 37° C. with 5% CO2 and 95% air, 10 μL of serially diluted test compounds in growth medium were added to each well. After 96 total hours of culture in a CO2 incubator, the plated cells and CellTiter-Glo® (Promega # G7571) reagents were brought to room temperature to equilibrate for 30 minutes. 100 μL of CellTiter-Glo® reagent was added to each well. The plate was shaken for 2 minutes and then left to equilibrate for 10 minutes before reading luminescence on the Tecan GENios microplate reader.
# (§2) Percent inhibition of cell growth was calculated relative to untreated control wells. All tests were performed in duplicate for each concentration level. The IC50 value for the test compounds was estimated using Prism 3.03 by curve-fitting the data.
# [2] = system: H1299 (Non-small cell lung carcinoma cell line); test: as above; assay type: cell-based; settings: Homo sapiens, NCI-H1299, 96 total hours of culture
# Procedure: as §1, §2
# [3] = system: HT-29 (Colorectal cancer cell line); test: as above; assay type: cell-based; settings: Homo sapiens
# Procedure: as §1, §2
# [4] = system: HepG2 (Hepatocellular cancer cell line); test: as above; assay type: cell-based; settings: Homo sapiens
# Procedure: as §1, §2
# [5] = system: SW480 (Colorectal cancer cell line); test: as above; assay type: cell-based; settings: Homo sapiens
# Procedure: as §1, §2
# [6] = system: H1299 (Non-small cell lung carcinoma cell line); test: Cell proliferation index assay, Assay Protocol II (Fluofarma, flow cytometry); assay type: cell-based; settings: Homo sapiens, NCI-H1299
# Procedure: In a second assay to determine the inhibition of cell proliferation by a test compound, cell proliferation of the cell line of interest was measured by a cell proliferation index assay using Fluofarma (www.fluofarma.com) based technology. This assay is based on the dilution rate of a fluorescent membrane marker, which is a direct function of the number of cell divisions. Briefly, the assay is performed by loading the cells with a non-toxic fluorescent phospholipid analog before the seeding. […] Flow cytometry analysis of the fluorescent probe is performed after the loading of the cells both prior to, as well as after treatment with various concentrations of the test compound. The dilution rate of the fluorescent probe at the single cell level is directly correlated to the number of cell divisions.
# [7] = system: HT-29 cells (a colorectal cancer cell line); test: Combination with 5-FU on HT-29 cells; assay type: cell-based, human; settings: FIG. 5
# [8] = system: H1299 cells; test: Cell cycle analysis; assay type: cell-based, human; settings: 48 hours, FIG. 6
# [9] = system: 786-O (kidney); test: Cell proliferation assay (CellTiter-Glo Luminescent); assay type: cell-based; settings: Homo sapiens, 786-0, 1 mM glucose, 96 hr
# [10] = system: BT-474 (Breast); test: as above; assay type: cell-based; settings: Homo sapiens, Complete media, 96 hr
# [11] = system: HepG2 (liver); test: Cell proliferation assay (XTT); assay type: cell-based; settings: Homo sapiens, Complete media, Assay duration: 72 hours, Readout: XTT
# Source text: The assay is based on the ability of metabolic active cells to reduce the tetrazolium salt XTT to orange colored compounds of formazan. The dye formed is water soluble and the dye intensity can be read at a given wavelength with a spectrophotometer. The intensity of the dye is proportional to the number of metabolic active cells. The use of multiwell plates and an ELISA reader enables testing a large number of samples and obtaining easy and rapid results. The test procedure includes cultivation of cells in a 96-well plate, adding the XTT reagent and incubation for 2-24 hours. During incubation an orange color is formed, the intensity of which can be measured with a spectrophotometer, in this instance with an ELISA reader. The greater the number of active cells in the well, the greater the activity of mitochondria enzymes, and the higher the concentration of the dye formed, which can then be measured and quantitated.
# • 1. […] The absorbance of the samples was measured against a background control as a blank (see 7) with a spectrophotometer (ELISA reader) at a wavelength of 450-500 nanometer. In order to measure reference absorbance (to measure non-specific readings), a wavelength of 630-690 nanometer was used and subtracted from the 450-500 nanometer measurement. • 7. […] This background absorbance depends on the culture medium, pH, incubation time and length of exposure to light. […]
# [12] = target: PKM1 (Homo sapiens, UniProt P14618); test: Isoform selectivity of pyruvate kinases; assay type: biochemical
# Sequence of PKM1 (P14618 1-531 isoform P14618-2): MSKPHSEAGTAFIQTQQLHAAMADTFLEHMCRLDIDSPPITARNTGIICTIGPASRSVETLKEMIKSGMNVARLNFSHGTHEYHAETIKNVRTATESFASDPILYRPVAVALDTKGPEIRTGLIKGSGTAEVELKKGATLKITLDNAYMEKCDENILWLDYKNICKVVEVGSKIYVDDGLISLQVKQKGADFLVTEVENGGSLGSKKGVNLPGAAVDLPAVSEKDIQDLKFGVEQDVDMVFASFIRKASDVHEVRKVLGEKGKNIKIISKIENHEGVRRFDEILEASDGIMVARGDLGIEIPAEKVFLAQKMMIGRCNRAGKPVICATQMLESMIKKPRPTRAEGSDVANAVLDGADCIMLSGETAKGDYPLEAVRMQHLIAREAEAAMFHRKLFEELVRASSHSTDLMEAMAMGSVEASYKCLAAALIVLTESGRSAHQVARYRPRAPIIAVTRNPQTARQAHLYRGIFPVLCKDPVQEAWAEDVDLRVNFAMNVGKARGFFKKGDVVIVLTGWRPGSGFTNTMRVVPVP
SMILES,IC50 [1],IC50 [2],IC50 [3],IC50 [4],IC50 [5],IC50 [6],effect in combination with 5-FU [7],cell cycle analysis [8],AC50 [9],AC50 [10],AC50 [11],AC50 [12]
"CCS(=O)(=O)Nc1ccc(C2=NN(C(C)=O)C(c3ccc(OC)cc3)C2)cc1 (racemic) [Compound 1A, N-(4-(1-acetyl-5-(4-methoxyphenyl)-4,5-dihydro-1H-pyrazol-3-yl)phenyl)ethanesulfonamide]",< 40 µM,40 to 100 µM,> 100 µM,40 to 100 µM,40 to 100 µM,40 to 100 µM,at least additive,–,–,–,–,–
"COc1ccc([C@@H]2CC(c3ccc(NS(=O)(=O)c4ccc(F)cc4)cc3)=NN2C(C)=O)cc1 [Compound 13A, (S)—N-(4-(1-acetyl-5-(4-methoxyphenyl)-4,5-dihydro-1H-pyrazol-3-yl)phenyl)-4-fluorobenzenesulfonamide]",–,–,–,–,–,–,–,most cells were arrested at the G1/S phase,< 3 µM,10 to 20 µM,> 20 µM,Not active

# From US20120302609A1, “Pyrazolines for the Modulation of PKM2” (Dynamix Pharmaceuticals LTD., priority 2011, published 2012)
